# Results taken from patent publication US20230414472A1, “COSMETIC COMPOSITION INCLUDING GARLIC EXTRACT, BLACK TEA EXTRACT, AND GUAVA EXTRACT” (COSMAX INC., priority 2022, published 2023).
# Tests used:
# [1] = molecular target: T1, SNARE complex (SNAP-25, syntaxin 1a, VAMP-2) (Homo sapiens, UniProt P60880+P63027+Q16623); assay: Inhibitory effect on membrane fusion (SNARE liposome fusion, fluorescence intensity); format: biochemical; conditions: 100 μM myricetin; FIG. 1
# T1 construct: GST (inferred from purification on glutathione agarose beads); made in house; host or cells: E. coli
# T1 sequence (P60880 whole entry, the tested form may be a part): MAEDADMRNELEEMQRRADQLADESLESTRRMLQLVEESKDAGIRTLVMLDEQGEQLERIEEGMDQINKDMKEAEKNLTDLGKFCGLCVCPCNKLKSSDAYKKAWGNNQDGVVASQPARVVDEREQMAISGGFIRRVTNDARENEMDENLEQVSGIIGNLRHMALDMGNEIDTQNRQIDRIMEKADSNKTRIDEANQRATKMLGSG
# T1 sequence (Q16623 whole entry, the tested form may be a part): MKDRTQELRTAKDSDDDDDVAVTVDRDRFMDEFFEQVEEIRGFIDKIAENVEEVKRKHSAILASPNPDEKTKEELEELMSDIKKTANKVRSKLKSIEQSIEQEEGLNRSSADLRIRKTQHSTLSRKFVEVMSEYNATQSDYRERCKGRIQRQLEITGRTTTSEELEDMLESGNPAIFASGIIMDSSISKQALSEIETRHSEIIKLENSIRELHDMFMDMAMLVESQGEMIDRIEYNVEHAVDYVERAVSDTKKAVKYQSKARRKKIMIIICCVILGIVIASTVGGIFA
# T1 sequence (P63027 whole entry, the tested form may be a part): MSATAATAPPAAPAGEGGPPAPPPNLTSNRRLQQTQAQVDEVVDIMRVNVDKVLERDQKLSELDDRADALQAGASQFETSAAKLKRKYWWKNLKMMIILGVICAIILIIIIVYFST
# Protocol: The inhibitory effect of the composition according to an embodiment on the membrane fusion was confirmed. Also, since myricetin was predicted as an active ingredient, the inhibitory effect of 100 μM of myricetin (Sigma-Aldrich) on the membrane fusion was also confirmed.
# First, a soluble nethylmaleimide-sensitive factor attachment protein (SNAP) receptor protein was overexpressed in transformed E. coli, and then the expressed protein was selectively purified and obtained by using glutathione agarose beads. Then, […] (POPC, 62 mol %), 1,2-dioleoyl-sn-glycero-3-phosphatidylserine (DOPS, 35 mol %), 1,2-dioleoyl-sn-glycero-3-phosphoserine-N-(7-nitro-2-1,3-benzoxadiazol-4-yl) (NBD-PS, 1.5 mol %), and a fluorescent material, rhodamine (rhodamin-PE, 1.5 mol %) were mixed to prepare a 10 mM fluorescent substance-labeled liposome (v-vesicle). Meanwhile, DOPS and POPC were mixed to a molar concentration of 35:65 to prepare a 50 mM liposome (t-vesicle) that is not labeled with a fluorescent substance. Then, purified synaptosomal-associated protein, SNAP-25, and syntaxin 1a were mixed at a molar concentration of 1:1 and allowed for a reaction for 1 hour at room temperature, followed by mixing with the liposome that is not labeled with a fluorescent substance at a molar ratio of 100:1. […]
# Then, the fluorescence intensity thereof was measured.
# [2] = system: VAMP2; assay: VAMP2 level in human skin explant (fluorescence staining); format: cell-based; conditions: 10 μL sample at set concentrations, cultured 72 hours, FIG. 3
# [3] = system: acetylcholine release in human skin tissue; assay: Acetylcholine release in human skin explant (choline/acetylcholine assay kit); format: cell-based; conditions: 10 μL sample every day for 3 days, FIG. 4
smiles,measurement,setting,value
O=c1c(O)c(-c2cc(O)c(O)c(O)c2)oc2cc(O)cc(O)c12 [myricetin],membrane fusion rate,[1],most significantly reduced
same,VAMP2 level in the skin tissue,[2],significantly reduced
same,amount of acetylcholine released in the skin tissue,[3],significantly reduced
